Where “and” joins values, the source holds several entries; their conditions need not be identical. Equal values may be shown once.
Experiments:
HCC827 = assay: MTT cytotoxicity assay, HCC827; assay type: cell-based; details: Homo sapiens, HCC827, 72 hrs, read-out: IC50 value after 72 hrs of treatment
Source text: (§1) This example described the BBR-induced cytotoxicity effect in six NSCLC cell lines utilizing MTT cytotoxicity assay. A549 is wild type EGFR and BEAS-2B is normal lung epithelial cells.

A549 (EGFR^Wild type) = assay: MTT cytotoxicity assay, A549; assay type: cell-based; details: Homo sapiens, A549, 72 hrs, read-out: IC50 value after 72 hrs of treatment
Source text: as §1

H1975 cells [1] = assay: Cell cycle analysis of H1975; assay type: cell-based, human; details: 72 hrs
Source text: (§2) The anticancer effect of berberine against two most BBR sensitive cell lines are further studied in Example 8, namely H1975 (EGFR^L858R+T790M) and H1650 (EGFR^Exon19 deletion).

H1650 cells [2] = assay: Cell cycle analysis of H1650; assay type: cell-based, human; details: 72 hrs
Source text: as §2

CPT1C = assay: Real-time PCR analysis of CPT1C RNA expression; assay type: cell-based, human; details: 24 hrs
Protocol: (§3) The RNA expression levels of CPT1C and SREBP1 in both H1975 and H1650 cell lines after being treated with 10 μM BBR for 24 hrs were analyzed by Real-time PCR analysis and Western blot analysis, as shown in FIGS. 2A-2D.

SREBP1 = assay: Real-time PCR analysis of SREBP1 RNA expression; assay type: cell-based, human; details: 24 hrs
Protocol: as §3

H1975 (EGFR^L858R+T790M) = assay: MTT cytotoxicity assay, H1975; assay type: cell-based; details: Homo sapiens, NCI-H1975, H1975, 72 hrs, read-out: IC50 value after 72 hrs of treatment
Source text: as §1

CCNB1 = assay: Western blot analysis of CCNB1 protein level in H1975 cells; assay type: cell-based, human; details: 72 hrs
H1975 cells [3] = assay: Thin-layer chromatography of total cellular lipid, H1975; assay type: cell-based, human; details: H1975, 5 μM, 72 hours
Protocol: (§4) Cells were scraped from culture dish and resuspended in 2 ml PBS containing 1× protease inhibitor and 1 mM PMSF. Total cellular lipid was extracted by adding 4 ml chloroform/methanol (2:1). The mixture was vortexed for 1 min and centrifuged at 1500 g×5 min. The organic phase was collected and another 2.5 ml choloroform was added to the residual aqueous phase; the mixture was vortexted and centrifuged at 1500 g×5 min again. The organic phase was collected together with the previous extraction. Thin layer chromatography (TLC) was performed by spotting of the cellular total lipid extract to a 5×10 cm silica gel aluminum sheet and developed with hexane/diethyl ether/acetic acid (80:20:2). Lipids were visualized with iodine vapor and imaged using a desktop scanner
(§5) The overall lipid levels in H1975 and H1650 treated by Berberine were studied in this example. H1975 and H1650 cells were treated with 5 μM BBR for 72 hours and then total cellular lipid was extracted.

CCND1 = assay: Western blot analysis of CCND1 protein level in H1975 cells; assay type: cell-based, human; details: 72 hrs
[4] = test system: H1650 (EGFR^Exon19 deletion); assay: MTT cytotoxicity assay, H1650; assay type: cell-based; details: Homo sapiens, NCI-H1650, H1650, 72 hrs, read-out: IC50 value after 72 hrs of treatment
Source text: as §1

H1819 [5] = assay: MTT cytotoxicity assay, H1819; assay type: cell-based; details: Homo sapiens, NCI-H1819, H1819, 72 hrs, read-out: IC50 value after 72 hrs of treatment
Source text: as §1

H1650 cells [6] = assay: Thin-layer chromatography of total cellular lipid, H1650; assay type: cell-based, human; details: H1650, 5 μM, 72 hours
Protocol: as §4, §5

[7] = test system: BEAS-2B (Normal lung epithelial cell); assay: MTT cytotoxicity assay, BEAS-2B; assay type: cell-based; details: Homo sapiens, 72 hrs, read-out: IC50 value after 72 hrs of treatment
Source text: as §1

[8] = test system: BEAS-2B (Normal lung epithelial cell); details: cited from earlier work
H1819 [9] = details: cited from earlier work
H1650 = details: cited from earlier work
H1975 = details: cited from earlier work

COc1ccc2cc3[n+](cc2c1OC)CCc1cc2c(cc1-3)OCO2 [BBR, berberine]
IC50 (HCC827): 8.9 ± 4.4 µM | IC50 (A549 (EGFR^Wild type)): 11.2 ± 3.98 µM | decrease of percentage of G0/G1 phase vs control (H1975 cells [1]; H1975, 5 μM): 11.5% | increase of G2 phase vs control (H1975 cells [1]; H1975, 5 μM): 11% | decrease of percentage of G0/G1 phase vs control (H1975 cells [1]; H1975, 10 μM): 14% | increase of G2 phase vs control (H1975 cells [1]; H1975, 10 μM): 15.73% and 15.7% | decrease of percentage of G0/G1 phase vs control (H1650 cells [2]; H1650, 5 μM): 21.1% | decrease of percentage of G0/G1 phase vs control (H1650 cells [2]; H1650, 10 μM): 18.3% | increase of RNA expression level of CPT1C vs vehicle control (CPT1C; H1650, 10 μM): 5.92 times | increase of RNA expression level of CPT1C vs vehicle control (CPT1C; H1975, 10 μM): 2.005 times | decrease of RNA expression level of SREBP1 vs vehicle control (SREBP1; H1650, 10 μM): 2.64 times | decrease of RNA expression level of SREBP1 vs vehicle control (SREBP1; H1975, 10 μM): 9.23 times | IC50 (H1975 (EGFR^L858R+T790M)): 2.92 ± 0.49 µM | protein level of CCNB1 (Western blot) (CCNB1): down-regulated | overall lipid levels (TLC) (H1975 cells [3]): lower the overall lipid levels | protein level of CCND1 (Western blot) (CCND1): down-regulated | IC50 [4]: 6 ± 2.78 µM | IC50 (H1819 [5]): 6.51 ± 2.09 µM | overall lipid levels (TLC) (H1650 cells [6]): lower the overall lipid levels | IC50 [7]: 24.7 ± 12.4 µM

COc1cc2ncnc(Nc3ccc(F)c(Cl)c3)c2cc1OCCCN1CCOCC1 [Gefitinib]
Gefitinib Sensitivity [8]: Resistant | Gefitinib Sensitivity (H1819 [9]): Moderately sensitive | Gefitinib Sensitivity (H1650): Resistant | Gefitinib Sensitivity (H1975): Resistant
